Experiments:
[1] = Metabolic stability of the compound in human liver microsomes assessed as parent compound remaining at 100 uM measured after 60 mins in presence of NADPH by LC-MS/MS analysis; assay type: ADME, Microsome; conditions: read-out: Stability
[2] = Clearance in Sprague-Dawley rat at 3 mg/kg, iv by LC-MS/MS analysis; assay type: ADME, organism-based; conditions: in vivo
[3] = AUC(infinity) in Sprague-Dawley rat at 3 mg/kg, iv by LC-MS/MS analysis; assay type: ADME, organism-based; design: dose 3 mg/kg, route iv; conditions: in vivo
[4] = Apparent volume of distribution in Sprague-Dawley rat at 3 mg/kg, iv by LC-MS/MS analysis; assay type: ADME, organism-based; conditions: in vivo, read-out: Vz
[5] = Intrinsic clearance in human liver microsomes at 100 uM by LC-MS/MS analysis; assay type: ADME, Microsome; conditions: read-out: CLH
[6] = Half life in Sprague-Dawley rat at 3 mg/kg, iv by LC-MS/MS analysis; assay type: ADME, organism-based; conditions: in vivo
CYP2C9 = CYP2C9 (Homo sapiens, UniProt P11712); test: Inhibition of CYP2C9 in human liver microsomes using sulfaphenazole […] at 10 uM pretreated with enzyme for 10 mins followed by NADPH-regenerating system addition for 15 mins by LC-MS/MS analysis; assay type: ADME, Microsome
[7] = Half-life in human plasma at 2 uM by LC-MS/MS analysis; assay type: ADME, cell-free
[8] = Initial plasma concentration in Sprague-Dawley rat at 3 mg/kg, iv by LC-MS/MS analysis; assay type: ADME, organism-based
CYP2C19 = CYP2C19 (Homo sapiens, UniProt P33261); test: Inhibition of CYP2C19 in human liver microsomes using benzylnirvanol […] at 10 uM pretreated with enzyme for 10 mins followed by NADPH-regenerating system addition for 15 mins by LC-MS/MS analysis; assay type: ADME, Microsome
[9] = Metabolic stability of the compound in human liver microsomes assessed as parent compound remaining at 100 uM measured after 60 mins by LC-MS/MS analysis; assay type: ADME, Microsome; conditions: 1 h
[10] = MRT (0 to infinity) in Sprague-Dawley rat at 3 mg/kg, iv by LC-MS/MS analysis; assay type: ADME, organism-based; conditions: in vivo

Sequence of CYP2C19 (P33261 whole entry): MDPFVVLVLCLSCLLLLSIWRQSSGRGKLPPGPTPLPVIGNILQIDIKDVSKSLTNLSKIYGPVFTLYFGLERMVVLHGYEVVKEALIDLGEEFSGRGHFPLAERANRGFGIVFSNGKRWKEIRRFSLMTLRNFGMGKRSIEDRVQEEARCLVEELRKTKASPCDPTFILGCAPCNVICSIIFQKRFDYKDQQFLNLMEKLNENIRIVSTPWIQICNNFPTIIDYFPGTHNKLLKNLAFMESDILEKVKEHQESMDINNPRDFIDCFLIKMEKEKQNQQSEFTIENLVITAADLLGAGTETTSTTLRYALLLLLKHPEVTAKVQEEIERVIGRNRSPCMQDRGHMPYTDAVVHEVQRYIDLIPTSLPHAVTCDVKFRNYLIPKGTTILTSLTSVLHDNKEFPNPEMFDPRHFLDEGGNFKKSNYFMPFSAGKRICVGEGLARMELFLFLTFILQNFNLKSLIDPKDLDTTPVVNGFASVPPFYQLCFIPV
Sequence of CYP2C9 (P11712 whole entry): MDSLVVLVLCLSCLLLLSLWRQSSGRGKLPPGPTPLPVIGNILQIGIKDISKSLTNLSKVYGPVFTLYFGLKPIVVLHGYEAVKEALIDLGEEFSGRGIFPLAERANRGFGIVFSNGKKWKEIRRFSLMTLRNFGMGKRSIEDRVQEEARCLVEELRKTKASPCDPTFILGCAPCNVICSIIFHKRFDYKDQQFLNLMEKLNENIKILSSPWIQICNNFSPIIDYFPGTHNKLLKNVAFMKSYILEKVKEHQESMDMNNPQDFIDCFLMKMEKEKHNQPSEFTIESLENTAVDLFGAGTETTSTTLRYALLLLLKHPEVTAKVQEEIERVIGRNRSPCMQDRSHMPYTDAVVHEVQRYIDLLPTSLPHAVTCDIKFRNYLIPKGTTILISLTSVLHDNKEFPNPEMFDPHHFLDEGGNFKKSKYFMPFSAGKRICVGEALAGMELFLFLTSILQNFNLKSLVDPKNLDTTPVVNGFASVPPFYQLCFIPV

Molecule `CS(=O)(=O)c1cccc(-c2cnc3[nH]nc(-c4cc(F)cc(NC(=O)Nc5cncnc5)c4)c3c2)c1` has a remaining at 1 h, 100 µM [1] of 35.3%, a clearance [2] of 37.8 mL/min/kg and an AUC(0-inf) [3] of 1350 ng·h/mL. It also gave a Vd [4] of 2.52 L/kg, a microsomal CLint at 100 µM [5] of 34.4 µL/min/mg and a half-life [6] of 45 min. It also gave an inhibition at 25 min, 10 µM (CYP2C9) of 46.6%, a half-life at 2 µM [7] of over 289 min and a C0 [8] of 11000 ng/mL. For the same molecule, the inhibition at 25 min, 10 µM (CYP2C19) was 44%, the Stability [9] was 104.7% and the MRT inf [10] was 14.4 min.
